Literature values in patent US11208393B2, “Methods for extraction, processing, and purification of a selected family of target compounds from cannabis” (Nectar Health Sciences Inc., priority 2019, dated 2021).

Conditions: of the protonated amine (ammonium ion)

| Structure (SMILES) | pKa |
| --- | --- |
| CN(C)CCO [(CH3)2NHCH2OH^+, dimethylethanolamine] | 9.3 |
| C1CN2CCN1CC2 [DABCO, 1,4-diazabicyclo[2.2.2]octane] | 8.9 |
| CN(C)CCN(C)C [TMEDA, tetramethylethylenediamine] | 9.0 |
